Target: Mcl-1 protein (UniProtKB primary accession number: Q07820) (Homo sapiens, UniProt Q07820)
Experiment: Inhibition of Mcl-1 by fluorescence polarisation, Method 1
Type: binding
Details: for IC50: fluorescence polarisation, Method 1, or Method 2, read-out: IC50 (M) Mcl-1 FP; for percentage fluorescence polarisation inhibition, Mcl-1 FP: partial inhibitors
Outline: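 An 11-point DMSO dilution of compound is mixed with buffer (10 mM HEPES, 150 mM NaCl, 0.05% Tween 20, pH 7.4) carrying 1 nM fluorescein-labelled ligand and 5 nM Mcl-1, final concentrations. Displacement is monitored by fluorescence polarisation.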

Mcl-1 protein, sequence (Q07820 whole entry): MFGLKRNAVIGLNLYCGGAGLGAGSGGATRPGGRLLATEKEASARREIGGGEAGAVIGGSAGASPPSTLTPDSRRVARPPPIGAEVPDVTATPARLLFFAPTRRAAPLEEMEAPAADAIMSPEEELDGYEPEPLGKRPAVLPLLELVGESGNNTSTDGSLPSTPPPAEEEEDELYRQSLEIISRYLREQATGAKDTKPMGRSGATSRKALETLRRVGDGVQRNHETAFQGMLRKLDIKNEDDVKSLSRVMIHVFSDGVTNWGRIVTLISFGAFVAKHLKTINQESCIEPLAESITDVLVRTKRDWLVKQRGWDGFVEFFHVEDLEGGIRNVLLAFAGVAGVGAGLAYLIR

Row | Structure (SMILES) | IC50 | percentage fluorescence polarisation inhibition, Mcl-1 FP (@ 10 uM test compound) | also measured
1 | COc1ccccc1CC(Oc1ncnc2sc(-c3ccc(Br)o3)c(-c3ccc(OCCN4CCN(C)CC4)c(Cl)c3C)c12)C(=O)O [Example 577, (2R)-2-{[6-(5-bromofuran-2-yl)-(5Sa)-5-{3-chloro-2-methyl-4-[2-(4-methylpiperazin-1-yl)ethoxy]phenyl}thieno[2,3-d]pyrimidin-4-yl]oxy}-3-(2-methoxyphenyl)propanoic acid] | 7.6e-09 M |  | 
2 | COC(=N)c1ccc(-c2sc3ncnc(OC(Cc4ccccc4OC)C(=O)O)c3c2-c2ccc(OCCN3CCN(C)CC3)c(Cl)c2C)o1 [Example 580, (2R)-2-[((5Sa)-5-{3-chloro-2-methyl-4-[2-(4-methylpiperazin-1-yl)ethoxy]phenyl}-6-[5-(methoxycarbonoimidoyl)furan-2-yl]thieno[2,3-d]pyrimidin-4-yl)oxy]-3-(2-methoxyphenyl)propanoic acid] | 3.7e-08 M |  | 
3 | COc1ccccc1CC(Oc1ncnc2sc(-c3ccc(C(N)=O)o3)c(-c3ccc(OCCN4CCN(C)CC4)c(Cl)c3C)c12)C(=O)O [Example 581, (2R)-2-{[6-(5-carbamoylfuran-2-yl)-(5Sa)-5-{3-chloro-2-methyl-4-[2-(4-methylpiperazin-1-yl)ethoxy]phenyl}thieno[2,3-d]pyrimidin-4-yl]oxy}-3-(2-methoxyphenyl)propanoic acid] | 4.2e-07 M |  | 
4 | COc1ccccc1CC(Oc1ncnc2sc(-c3ccc(C(=O)N(C)C)o3)c(-c3ccc(OCCN4CCN(C)CC4)c(Cl)c3C)c12)C(=O)O [Example 582, (2R)-2-[((5Sa)-5-{3-chloro-2-methyl-4-[2-(4-methylpiperazin-1-yl)ethoxy]phenyl}-6-[5-(dimethylcarbamoyl)furan-2-yl]thieno[2,3-d]pyrimidin-4-yl)oxy]-3-(2-methoxyphenyl)propanoic acid] | 8.4e-08 M |  | 
5 | COC(=O)c1ccc(-c2sc3ncnc(OC(Cc4ccccc4OC)C(=O)O)c3c2-c2ccc(OCCN3CCN(C)CC3)c(Cl)c2C)o1 [Example 583, (2R)-2-[((5Sa)-5-{3-chloro-2-methyl-4-[2-(4-methylpiperazin-1-yl)ethoxy]phenyl}-6-[5-(methoxycarbonyl)furan-2-yl]thieno[2,3-d]pyrimidin-4-yl)oxy]-3-(2-methoxyphenyl)propanoic acid] | 1.1e-07 M |  | 
6 | COc1ccccc1CC(Oc1ncnc2sc(-c3ccc(-c4ccccc4)o3)c(-c3ccc(OCCN4CCN(C)CC4)c(Cl)c3C)c12)C(=O)O [Example 586, (2R)-2-{[(5Sa)-5-{3-chloro-2-methyl-4-[2-(4-methylpiperazin-1-yl)ethoxy]phenyl}-6-(5-phenylfuran-2-yl)thieno[2,3-d]pyrimidin-4-yl]oxy}-3-(2-methoxyphenyl)propanoic acid] | 1.4e-06 M |  | 
7 | COCCCc1sc2ncnc(OC(Cc3ccccc3OCc3ccnc(OC)n3)C(=O)O)c2c1-c1ccc(OCCN2CCN(C)CC2)c(Cl)c1C [Example 599, (2R)-2-{[(5Sa)-5-{3-chloro-2-methyl-4-[2-(4-methylpiperazin-1-yl)ethoxy]phenyl}-6-(3-methoxypropyl)thieno[2,3-d]pyrimidin-4-yl]oxy}-3-{2-[(2-methoxypyrimidin-4-yl)methoxy]phenyl}propanoic acid] | 1.1e-08 M |  | 
8 | CCCCn1nccc1COc1ccccc1CC(Oc1ncnc2sc(C#N)c(-c3ccc(OCCN4CCN(C)CC4)c(Cl)c3C)c12)C(=O)O [Example 614, (2R)-3-{2-[(1-butyl-1H-pyrazol-5-yl)methoxy]phenyl}-2-[((5Sa)-5-{3-chloro-2-methyl-4-[2-(4-methylpiperazin-1-yl)ethoxy]phenyl}-6-cyanothieno[2,3-d]pyrimidin-4-yl)oxy]propanoic acid] | 8.4e-09 M |  | 
9 | CCCCn1nccc1COc1ccccc1CC(Oc1ncnc2sc(-c3ccc(N)nc3)c(-c3ccc(OCCN4CCN(C)CC4)c(Cl)c3C)c12)C(=O)O [Example 618, (2R)-2-{[6-(6-aminopyridin-3-yl)-(5Sa)-5-{3-chloro-2-methyl-4-[2-(4-methylpiperazin-1-yl)ethoxy]phenyl}thieno[2,3-d]pyrimidin-4-yl]oxy}-3-{2-[(1-butyl-1H-pyrazol-5-yl)methoxy]phenyl}propanoic acid] | 5.6e-09 M |  | 
10 | CCOC(=O)[C@@H](Cc1ccccc1OCc1ccnn1C(C)C)Oc1ncnc2sc(-c3ccc(F)cc3)c(-c3ccc(OCCN4CCN(C)CC4)c(Cl)c3C)c12 [Example 624, ethyl (2R)-2-{[(5Sa)-5-{3-chloro-2-methyl-4-[2-(4-methylpiperazin-1-yl)ethoxy]phenyl}-6-(4-fluorophenyl)thieno[2,3-d]pyrimidin-4-yl]oxy}-3-(2-{[1-(propan-2-yl)-1H-pyrazol-5-yl]methoxy}phenyl)propanoate] |  | 26.95% @ 10 uM | 
11 | CCOC(=O)[C@@H](Cc1ccccc1OC[C@H]1CCCO1)Oc1ncnc2sc(-c3ccc(F)cc3)c(-c3ccc(OCCN4CCN(C)CC4)c(Cl)c3C)c12 [Example 628, ethyl (2R)-2-{[(5Sa)-5-{3-chloro-2-methyl-4-[2-(4-methylpiperazin-1-yl)ethoxy]phenyl}-6-(4-fluorophenyl)thieno[2,3-d]pyrimidin-4-yl]oxy}-3-{2-[(2R)-tetrahydrofuran-2-ylmethoxy]phenyl}propanoate] |  | 33.2% @ 10 uM | 
12 | CCOC(=O)[C@@H](Cc1ccccc1OC[C@H]1CCCO1)Oc1ncnc2sc(-c3ccc(F)cc3)c(-c3ccc(OCCN4CCOCC4)c(Cl)c3C)c12 [Example 629, ethyl (2R)-2-{[(5Sa)-5-{3-chloro-2-methyl-4-[2-(morpholin-4-yl)ethoxy]phenyl}-6-(4-fluorophenyl)thieno[2,3-d]pyrimidin-4-yl]oxy}-3-{2-[(2R)-tetrahydrofuran-2-ylmethoxy]phenyl}propanoate] |  | 14.95% @ 10 uM | 
13 | CCOC(=O)C(Cc1ccccc1OCC1CCCO1)Oc1ncnc2sc(-c3ccc(F)cc3)c(-c3ccc(OCCN(C)C)c(Cl)c3C)c12 [Example 630, ethyl (2R)-2-{[(5Sa)-5-{3-chloro-4-[2-(dimethylamino)ethoxy]-2-methylphenyl}-6-(4-fluorophenyl)thieno[2,3-d]pyrimidin-4-yl]oxy}-3-{2-[(2R)-tetrahydrofuran-2-ylmethoxy]phenyl}propanoate] |  | 27.95% @ 10 uM | 
14 | CCOC(=O)[C@@H](Cc1ccccc1OC)Oc1ncnc2sc(-c3ccsc3)c(-c3ccc(O)c(Cl)c3C)c12 [Example 636, ethyl (2R)-2-{[(5Sa)-5-(3-chloro-4-hydroxy-2-methylphenyl)-6-(thiophen-3-yl)thieno[2,3-d]pyrimidin-4-yl]oxy}-3-(2-methoxyphenyl)propanoate] |  |  | percentage fluorescence polarisation inhibition, Mcl-1 FP (@ 1000 uM test compound): 71.7 % @ 1000 uM

Now from value to molecule, other results behind:

Row | IC50 | percentage fluorescence polarisation inhibition, Mcl-1 FP (@ 10 uM test compound) | Structure (SMILES) | also measured
15 |  | 39.45% @ 10 uM | CCOC(=O)[C@@H](Cc1ccccc1OCc1ccnc(OC)n1)Oc1ncnc2sc(-c3ccc(F)cc3)c(-c3ccc(OCCN4CCN(C)CC4)c(Cl)c3C)c12 [Example 626, ethyl (2R)-2-{[(5Sa)-5-{3-chloro-2-methyl-4-[2-(4-methylpiperazin-1-yl)ethoxy]phenyl}-6-(4-fluorophenyl)thieno[2,3-d]pyrimidin-4-yl]oxy}-3-{2-[(2-methoxypyrimidin-4-yl)methoxy]phenyl}propanoate] | 
16 | 4.9e-07 M |  | CCOC(=O)C(Cc1ccccc1OC)Oc1ncnc2sc(-c3ccco3)c(-c3ccc(OCCN4CCN(C)CC4)c(Cl)c3C)c12 [Example 627, ethyl (2R)-2-{[(5Sa)-5-{3-chloro-2-methyl-4-[2-(4-methylpiperazin-1-yl)ethoxy]phenyl}-6-(furan-2-yl)thieno[2,3-d]pyrimidin-4-yl]oxy}-3-(2-methoxyphenyl)propanoate] | 
17 |  | 56% @ 10 uM | CCOC(=O)[C@@H](Cc1ccccc1OCc1cnccn1)Oc1ncnc2sc(-c3ccc(F)cc3)c(-c3ccc(OCCN4CCN(C)CC4)c(Cl)c3C)c12 [Example 631, ethyl (2R)-2-{[(5Sa)-5-{3-chloro-2-methyl-4-[2-(4-methylpiperazin-1-yl)ethoxy]phenyl}-6-(4-fluorophenyl)thieno[2,3-d]pyrimidin-4-yl]oxy}-3-[2-(pyrazin-2-ylmethoxy)phenyl]propanoate] | 
18 |  | 41.8% @ 10 uM | CCOC(=O)[C@@H](Cc1ccccc1OCc1cnccn1)Oc1ncnc2sc(-c3ccc(F)cc3)c(-c3ccc(OCCN4CCOCC4)c(Cl)c3C)c12 [Example 632, ethyl (2R)-2-{[(5Sa)-5-{3-chloro-2-methyl-4-[2-(morpholin-4-yl)ethoxy]phenyl}-6-(4-fluorophenyl)thieno[2,3-d]pyrimidin-4-yl]oxy}-3-[2-(pyrazin-2-ylmethoxy)phenyl]propanoate] | 
19 |  | 40.2 % @ 10 uM | CCOC(=O)[C@@H](Cc1ccccc1OC)Oc1ncnc2sc(-c3ccsc3)c(-c3ccc(OCCN4CCN(C)CC4)c(Cl)c3C)c12 [Example 633, ethyl (2R)-2-{[(5Sa)-5-{3-chloro-2-methyl-4-[2-(4-methylpiperazin-1-yl)ethoxy]phenyl}-6-(thiophen-3-yl)thieno[2,3-d]pyrimidin-4-yl]oxy}-3-(2-methoxyphenyl)propanoate] | 
20 |  | 10.7% @ 10 uM | CCOC(=O)[C@@H](Cc1ccccc1OCC(F)(F)F)Oc1ncnc2sc(-c3ccc(F)cc3)c(-c3ccc(OCCN(C)C)c(Cl)c3C)c12 [Example 634, ethyl (2R)-2-{[(5Sa)-5-{3-chloro-4-[2-(dimethylamino)ethoxy]-2-methylphenyl}-6-(4-fluorophenyl)thieno[2,3-d]pyrimidin-4-yl]oxy}-3-[2-(2,2,2-trifluoroethoxy)phenyl]propanoate] | 
21 |  | 50.75% @ 10 uM | CCOC(=O)[C@@H](Cc1ccccc1OCC(F)(F)F)Oc1ncnc2sc(-c3ccc(F)cc3)c(-c3ccc(OCCN4CCN(C)CC4)c(Cl)c3C)c12 [Example 635, ethyl (2R)-2-{[(5Sa)-5-{3-chloro-2-methyl-4-[2-(4-methylpiperazin-1-yl)ethoxy]phenyl}-6-(4-fluorophenyl)thieno[2,3-d]pyrimidin-4-yl]oxy}-3-[2-(2,2,2-trifluoroethoxy)phenyl]propanoate] | 
